Results from US20220347260A1, “Combination of An Agonist Anti-PD-1 Antibody With a GnRH Agonist or Antagonist to Treat Cancer” (Debiopharm International SA, priority 2017, published 2022).

What was measured:
[1] = Phase I study Debio 8200-IMM-101, Patient A: serum testosterone levels; type: in vivo, human; settings: baseline Day 1 15.7 nmol/L, castrate range <1.735 nmol/L
Experimental: The study involves 3 to 12 treatment cycles (depending on individual responses) of 28 days each. Patients receive triptorelin embonate (pamoate) 3.75 mg one-month formulation i.m. on day 1 of each 28-day cycle and nivolumab (Opdivo®) at 3 mg/kg body weight i.v. (1-hour infusion) on days 1 and 15 of each cycle. On day 1 of each cycle, triptorelin is administered prior to nivolumab. In addition, patients take bicalutamide 50 mg p.o. once daily for 28 days throughout cycle 1 only, to counteract the initial testosterone “flare” induced by triptorelin.
On 12 Jun. 2018 the patient was enrolled in the protocol Debio 8200-IMM-101 and received the first injections of triptorelin -anti-androgen bicalutamide was added for 28 days- and anti-PD-1 molecule nivolumab.
As expected due to triptorelin treatment, the serum testosterone levels of the patient decreased from a baseline (Day 1) level of 15.7 nmol/L on 12 Jun. 2018 to a very low castrate level of 0.6 nmol/L four weeks later 10 Jul. 2018 (Day 29), and have remained in the castrate range (i.e. <1.735 nmol/L) until the last value available to date of 0.69 nmol/L on 29 Oct. 2018 (Day 141).

melanoma = melanoma patients in phase II or III trials; in some cases for more than ten years; cited from earlier work
[2] = tested on: melanoma metastasis in the pancreas; assay: Patient A: prior pembrolizumab treatment, tumor response by PET-CT; type: in vivo, human
Experimental: A person (at screening on 23 May 2018) […] had been operated on 26 Sep. 2016 for left lung lobectomy for melanoma metastasis of unknown origin. On 21 Aug. 2017, biopsy of PET-CT (Positron emission tomography—computed tomography) detected a new melanoma metastasis in the pancreas. From 27 Sep. 2017 until 13 Mar. 2018 (last administration at Cycle 9) they were treated with anti-PD-1 molecule pembrolizumab. On 12 Dec. […] However, on 30 Mar. […] On 23 May 2018, the size of this unique pancreatic metastasis was 34 mm on CT-scan.

## CC(C)C[C@H](NC(=O)[C@@H](Cc1c[nH]c2ccccc12)NC(=O)[C@H](Cc1ccc(O)cc1)NC(=O)[C@H](CO)NC(=O)[C@H](Cc1c[nH]c2ccccc12)NC(=O)[C@H](Cc1c[nH]cn1)NC(=O)[C@@H]1CCC(=O)N1)C(=O)N[C@@H](CCCNC(=N)N)C(=O)N1CCC[C@H]1C(=O)NCC(N)=O [triptorelin, pyroGlu-His-Trp-Ser-Tyr-D-Trp-Leu-Arg-Pro-Gly-NH2]
[1]; Day 29 (10 Jul. 2018)
  serum testosterone level: 0.6 nmol/L
[1]; Day 141 (29 Oct. 2018)
  serum testosterone level: 0.69 nmol/L

## Ipilimumab: fully human IgG1 CTLA-4-blocking monoclonal antibody from Bristol-Myers Squibb
melanoma
  durable survival, patients: about 20%

## pembrolizumab: humanized IgG4 monoclonal anti-PD-1 antibody from Merck
[2]; 12 Dec. 2017, pembrolizumab from 27 Sep. 2017 until 13 Mar. 2018
  tumor response: Partial Response (PR)
[2]; 30 Mar. 2018, PET-CT, after Cycle 9 of pembrolizumab
  tumor response: progression (PD)
